Reference: patent US10059699B2, “Tetrahydroquinoline derivatives as bromodomain inhibitors” (GlaxoSmithKline Intellectual Property (No.2) Limited, priority 2014, dated 2018)
Where two headings read alike, the source gives them in different places.

Test system: NUT midline carcinoma cells (11060)
Test: Cancer cell line proliferation assay, 11060
Assay type: cell-based
Conditions: 11060 cells, 72 hours, CellTiter Glo, n = 3
Experimental: The impact of the compound of Examples 7 and 14 on cancer cell proliferation was determined using patient derived NUT midline carcinoma cells (11060), multiple myeloma cells (OPM-2, DSMZ) and biphenotypic B myelomonocytic leukaemia cells (MV-4-11, ATCC) in a 72 hour proliferation assay. 11060 and OPM-2 cells were maintained in RPMI 1640 medium (Invitrogen) supplemented with 10% HI-FBS (Heat-Inactivated Fetal Bovine Serum, Hyclone) and 2 mM L-glutamine (Invitrogen) at 37° C. and an atmosphere of 5% CO2. MV-4-11 cells were maintained in IMDM media supplemented with 10% HI-FCS, 2 mM L-glutamine, 1× Non-essential amino acids (Invitrogen) and 1× sodium pyruvate (1 mM) (Invitrogen). Cells were diluted to 1.11×10^5 cells/mL and 90 μL/well plated into black sided, clear bottomed 96 well tissue culture plates (Corning), using growth media supplemented with penicillin/streptomycin (Invitrogen). Cells were incubated overnight at 37° C. and in one plate, ATP levels were measured using the CellTiter Glo assay (Promega) according to the manufacturer's instructions, to give a baseline reading (t=0). 3-fold serial dilutions of compounds ranging from 6 mM to 0.3 μM were prepared in 100% DMSO. The DMSO dilution series was diluted 20-fold in growth media before 10 μl of the resulting dilutions were added to the appropriate wells of the remaining cell plates. The final compound concentrations in the wells ranged from 30 μM to 1.5 nM in 0.5% DMSO. Cells were incubated with compounds for 72 hours before assaying for ATP content using CellTiter Glo (t=72). CellTiter Glo data from each t=72 time point was normalised to the relevant t=0 time point data, and expressed as % t=0.

## CC(=O)N1c2ccc(C(N)=O)cc2[C@H](Nc2ncc(Cl)cn2)C[C@@H]1C [Example 14, (2S,4R)-1-acetyl-4-((5-chloropyrimidin-2-yl)amino)-2-methyl-1,2,3,4-tetrahydroquinoline-6-carboxamide]
Full curve fit, read-out: Cellular Proliferation: pIC50 (converted)
  IC50: 1000 nM
read-out: Cellular Proliferation: gpIC50 (converted)
  IC50: 631 nM
